A word on the Log P: it is a log measure of how a compound divides between an organic and an aqueous phase. Low readings indicate a more hydrophilic compound, high ones a more lipophilic compound.

Marks after values point to notes of the source that are not given here.

For the first data set the following is noted: pH 2.3.
For the compound `CCOC(=O)C(C#N)=C(NC(C)C(C)C)c1cccnc1Br` (centres unmarked) [Compound 1545], the log partition coefficient (Log P) was determined as 3.27.
The same measure, in the same setting: then `CONC(=O)C(C#N)=C(Nc1ccccc1SC)c1cccnc1Cl` [Compound 1620], with 2.19.
On the same count and under the same terms, then `CC(C)C(C)NC(=C(C#N)C(=O)NC1CC1F)c1cccnc1Cl` (centres unmarked) [Compound 1456], with 2.83^[c]; 2.83^[b]; and `C#CCNC(=C(C#N)C(=O)OCC)c1cccnc1Cl` [Compound 1044], with 2.18.
Take `CCOC(=O)C(C#N)=C(NC1CC2CCC1C2)c1cccnc1Cl` (centres unmarked) [Compound 1080]: the log partition coefficient (Log P) was 3.59.

The data set is the same for the next values; noted with them: pH 2.7.
For the compound `COC(=O)C(C#N)=C(NC(C)c1ccc(Cl)c(Cl)c1)c1cccnc1Cl` (centres unmarked) [Compound 387], the “Log P” value was 3.58^[a].
With `CCOC(=O)C(C#N)=C(NC(C)COc1ccccc1C)c1cn(C)nc1C(F)F` (racemic) [Compound 1242], the “Log P” value was 3.78^[a].
Still for that read-out and setting: then `CCOC(=O)C(C#N)=C(NC(C)C(N)=O)c1cn(C)nc1C(F)(F)F` (centres unmarked) [Compound 635], with 1.78^[a].
Regarding `CC(C)C(C)NC(=C(C#N)C(=O)N(C)C)c1cn(C)nc1C(F)F` (centres unmarked) [Compound 1286], the lipophilicity (Log P) was 2.45^[a].
`COC(=O)C(C#N)=C(NC(C)c1ncc(Br)cc1Cl)c1cccnc1Cl` (centres unmarked) [Compound 124]: the log partition coefficient (Log P) was 3.24^[a].
Same read-out and setting: then `CCOC(=O)C(C#N)=C(NC(C)CN(C)C)c1ncc(C(F)(F)F)cc1Cl` (racemic) [Compound 583], with 1.63^[a]; and `CCOC(=O)C(C#N)=C(NC(C)CCc1ccccc1)c1sc(C)nc1C(F)(F)F` (mixture of isomers) [Compound 449], with 4.36^[a]; and `CCOC(=O)C(C#N)=C(NC(C)C(F)(F)F)c1cn(C)cc1C(F)(F)F` (racemic) [Compound 812], with 3.64^[a].
The same measure, in the same setting: then `CCOC(=O)C(C#N)=C(NC(C)c1nccs1)c1cn(C)nc1C(Cl)Cl` (centres unmarked) [Compound 1564], with 2.75^[a]; and `CCOC(=O)C(C#N)=C(NC(C)CF)c1cc(Cl)sc1Cl` (centres unmarked) [Compound 747], with 3.49^[a]; and `CCOC(=O)C(C#N)=C(NC(C)C(C)C)c1cc(C)oc1C` (centres unmarked) [Compound 947], with 3.99^[a].
On the same count and under the same terms, then `CCOC(=O)C(C)NC(=C(C#N)C(=O)OC)c1sc(C)nc1C(F)(F)F` (racemic) [Compound 664], with 2.96^[a]; and `CCOC(=O)C(C#N)=C(Nc1ccc2ncsc2c1)c1sccc1Br` [Compound 469], with 3.09^[a].
With `CCOC(=O)C(C#N)=C(NC1(COc2ccccc2)CC1)c1cn(C)nc1C(F)F` [Compound 561], the “Log P” value is 3.37^[a].
Same read-out and setting: then `CCOC(=O)C(C#N)=C(NC(c1ccccn1)C(F)(F)F)c1cccnc1Cl` (racemic) [Compound 1549], with 3.17^[a]; and `CCOC(=O)C(C#N)=C(NC(C)C1CCCO1)c1sccc1Br` (mixture of isomers) [Compound 186], with 3.35^[a]; and `CCNC(=O)C(C#N)=C(NC(C)c1nccs1)c1cn(C)nc1C(F)F` (racemic) [Compound 1294], with 2.05^[a].
On the same count and under the same terms, under `CCOC(=O)C(C#N)=C(NC(C)C1CCC1)c1ccnn1C(F)F` (centres unmarked) [Compound 1640] stands 3.56^[a]; under `CCOC(=O)C(C#N)=C(NC(C)(C)C=C(Cl)Cl)c1sccc1Br` [Compound 1105], 4.21^[a]; under `CCOC(=O)C(C#N)=C(NC(C)C(C)CC)c1cn(C)nc1C(Cl)Cl` (centres unmarked) [Compound 1577], 3.8^[a].
On the same count and under the same terms, then `CCOC(=O)C(C#N)=C(Nc1cccc(SC)c1)c1sccc1Br` [Compound 491], with 3.96^[a]; and `COC(=O)C(C#N)=C(NC(C)(C)C(C)(C)C)c1sc(C)nc1C(F)(F)F` [Compound 754], with 4.02^[a]; and `COC(=O)C(C#N)=C(NC(C(=O)OC)C(C)C)c1sc(C)nc1C(F)(F)F` (racemic) [Compound 666], with 3.29^[a].
Turning to `COCCNC(=O)C(C#N)=C(NC(C)C(C)C)c1cn(C)nc1C(F)F` (centres unmarked) [Compound 1005], the log partition coefficient (Log P) is 2.59^[a].
The same measure, in the same setting: then `CCOC(=O)C(C#N)=C(NC(C)c1nccs1)c1cc(Cl)sc1Cl` (centres unmarked) [Compound 1578], with 3.58^[a].
Still for that read-out and setting: then `CCOC(=O)C(C#N)=C(NC(CC)c1ccccc1OC)c1cn(C)nc1C(F)F` (racemic) [Compound 557], with 3.62^[a]; and `CCNC(=O)C(C#N)=C(NC(C)c1ccccn1)c1ccnc(Cl)c1Cl` (centres unmarked) [Compound 1201], with 2.53^[a].
Same read-out and setting: then `C#CCC(C#N)NC(=C(C#N)C(=O)OCC)c1cn(C)nc1C(F)F` (centres unmarked) [Compound 1220], with 2.33^[a].
Regarding `CCOC(=O)C(C#N)=C(NC(c1cc2ccccc2s1)C(F)(F)F)c1cn(C)nc1C(F)F` (racemic) [Compound 48], the “Log P” value is 4.1^[a].
The same measure, in the same setting: then `CCOC(=O)C(C#N)=C(NC(C)c1ccc(Cl)cc1)c1cn(C)nc1C(F)(F)F` (centres unmarked) [Compound 430], with 3.95^[a]; and `CCOC(=O)C(C#N)=C(NC(C)c1ccccn1)c1ccnc(C)c1Cl` (racemic) [Compound 1243], with 2.6^[a]; and `C=CCOC(=O)C(C#N)=C(NC(C)c1ccccn1)c1cccnc1Cl` (centres unmarked) [Compound 1572], with 2.66^[a].
Still for that read-out and setting: under `CCOC(=O)C(C#N)=C(NC(C)C(C)C)c1conc1C` (centres unmarked) [Compound 940] stands 3.15^[a]; under `CCOC(=O)C(C#N)=C(NC(C)c1ccc(Cl)cc1)c1nsc(Cl)c1Cl` (centres unmarked) [Compound 355], 4.65^[a].
Same read-out and setting: under `CCOC(=O)C(C#N)=C(NC(C)C1CC1)c1cc(Cl)sc1Cl` (centres unmarked) [Compound 1587] stands 4.43^[a]; under `CCOC(=O)C(C#N)=C(NC1CCCCC1)c1cn(C)nc1C(F)F` [Compound 1333], 3.29^[a]; under `COC(=O)C(C#N)=C(NC1CCCCNC1=O)c1cccnc1Cl` (centres unmarked) [Compound 123], 1.57^[a].
Turning to `CCOC(=O)C(C#N)=C(NC(C)C1(Cl)CC1)c1sc(C)nc1C(F)(F)F` (centres unmarked) [Compound 772], the “Log P” value is 3.89^[a].
Same read-out and setting: under `CCOC(=O)C(C#N)=C(NC(C)c1ccc(Cl)nc1)c1cccnc1Cl` (centres unmarked) [Compound 1437] stands 2.8^[a]; under `CCOC(=O)C(C#N)=C(NC(C)C1CCCCC1)c1sccc1C(F)(F)F` (centres unmarked) [Compound 873], 5.11^[a]; under `CCOC(=O)C(C#N)=C(NCc1ccccc1SC)c1cn(C)nc1C(F)F` [Compound 476], 3.17^[a].
As to `CCOC(=O)C(C#N)=C(NC(C)C1CCCO1)c1ccnc(C(F)(F)F)c1Cl` (centres unmarked) [Compound 1624], the “Log P” value was 3.62^[a].
The same measure, in the same setting: then `CCOC(=O)C(C#N)=C(Nc1ccccc1SC)c1ccnc(Cl)c1Cl` [Compound 1388], with 3.89^[a]; and `CCOC(=O)C(C#N)=C(NC(C)c1nccs1)c1cnccc1Br` (racemic) [Compound 257], with 2.88^[a].
Still for that read-out and setting: under `C#CC(C)NC(=C(C#N)C(=O)OCC)c1sccc1C(F)(F)F` (centres unmarked) [Compound 1046] stands 3.25^[a]; under `CCOC(=O)C(C#N)=C(NC(C)c1ccccn1)c1cccnc1C(F)F` (racemic) [Compound 264], 2.46^[a]; under `CCOC(=O)C(C#N)=C(NC1CC1C)c1cccnc1Cl` (centres unmarked) [Compound 1067], 2.86^[a].
As to `CCOC(=O)C(C#N)=C(NC1CCC(OCC)CC1)c1cccnc1Cl` (centres unmarked) [Compound 1370], the “Log P” value was 3.31^[a].
The same measure, in the same setting: then `CCOC(=O)C(C#N)=C(NC(C)C(C)C)c1ccnc(Cl)c1Cl` (centres unmarked) [Compound 994], with 3.92^[a]; and `CCOC(=O)C(C#N)=C(NC(C)c1ccccn1)c1ccnc(Cl)c1Cl` (mixture of isomers) [Compound 289], with 3.04^[a].
`CCOC(=O)C(C#N)=C(NC1(c2cccc(Cl)c2)CC1)c1cn(C)nc1C(F)F` [Compound 1361]: the log partition coefficient (Log P) was 3.51^[a].
On the same count and under the same terms, under `C#CC(C)NC(=C(C#N)C(=O)OC)c1sc(C)nc1C(F)(F)F` (centres unmarked) [Compound 1048] stands 2.73^[a].
On the same count and under the same terms, under `COC(=O)C(C#N)=C(NC1CCS(=O)(=O)C1)c1cccnc1Cl` (centres unmarked) [Compound 125] stands 1.33^[a].
Still for that read-out and setting: under `CCOC(=O)C(C#N)=C(NC(C)C(C)C)c1cn(C)nc1I` (centres unmarked) [Compound 1202] stands 3.22^[a].
For the compound `CCOC(=O)C(C#N)=C(NC(C)COC)c1scnc1Cl` (centres unmarked) [Compound 1467], the lipophilicity (Log P) was 2.61^[a].
Consider `CCOC(=O)C(C#N)=C(NC(C(=O)OC)C(C)C)c1cc(Cl)sc1Cl` (centres unmarked) [Compound 712], for which the “Log P” value was 4.14^[a].
Still for that read-out and setting: then `CCOC(=O)C(C#N)=C(NC(C)C(C)C)c1scnc1Cl` (centres unmarked) [Compound 1468], with 3.46^[a]; and `CC#CC(C)(C)NC(=C(C#N)C(=O)OC)c1sc(C)nc1C(F)(F)F` [Compound 1042], with 3.35^[a].
The same measure, in the same setting: then `CCOC(=O)C(C#N)=C(NC(C)(C)C#Cc1ccc(C)cc1)c1sccc1Br` [Compound 1096], with 5.05^[a]; and `CCOC(=O)C(C#N)=C(NCCOc1ccccc1Br)c1cccnc1Cl` [Compound 1377], with 3.53^[a]; and `COC(=O)C(C#N)=C(NC(C)(C)C#Cc1ccc(C)cc1)c1sc(C)nc1C(F)(F)F` [Compound 1095], with 4.51^[a].
Same read-out and setting: under `CCOC(=O)C(C#N)=C(NC1CCCc2cccnc21)c1cccnc1Cl` (centres unmarked) [Compound 1605] stands 3^[a].
For `CCOC(=O)C(C#N)=C(NC(C)c1nccs1)c1cn(C)nc1OC` (racemic) [Compound 229], the “Log P” value was 2.26^[a].
Same read-out and setting: then `CCOC(=O)C(C#N)=C(NC(C)c1cscn1)c1ccncc1C(F)(F)F` (mixture of isomers) [Compound 303], with 2.6^[a].
The same measure, in the same setting: under `CCOC(=O)C(C#N)=C(NC1CCC1)c1ccnc2ccccc12` [Compound 1498] stands 2.88^[a].
For `CCOC(=O)C(C#N)=C(NC(C)c1nccs1)c1ccnc(Br)c1Cl` (centres unmarked) [Compound 1290], the lipophilicity (Log P) was 3.02^[a].
As to `C#CC1CCCCC1NC(=C(C#N)C(=O)OC)c1cccnc1Cl` (centres unmarked) [Compound 1063], the “Log P” value is 2.99^[a].

The data set is the same for the next values; noted with them: pH 7.5.
Turning to `CONC(=O)C(C#N)=C(Nc1ccccc1SC)c1cccnc1Cl` [Compound 1620], the lipophilicity (Log P) came to 1.96.
The same measure, in the same setting: then `CC(C)C(C)NC(=C(C#N)C(=O)NC1CC1F)c1cccnc1Cl` (centres unmarked) [Compound 1456], with 2.83^[c]; 2.83^[b]; and `C#CCNC(=C(C#N)C(=O)OCC)c1cccnc1Cl` [Compound 1044], with 2.05.
On the same count and under the same terms, then `CCOC(=O)C(C#N)=C(NC1CC2CCC1C2)c1cccnc1Cl` (centres unmarked) [Compound 1080], with 3.57; and `CCOC(=O)C(C#N)=C(NC(C)C(C)C)c1ccc(C)nc1Cl` (centres unmarked) [Compound 950], with 3.63.

Values taken from patent US8476197B2, “Aminopropenoates as fungicides” (priority 2009, dated 2013).
